The values that follow come from US20260062422A1 (Halda Therapeutics OpCo, Inc., priority 2022, published 2026).

The subject of experiment [1] is T-Rex 293 cell line SC3 cells having increased expression of androgen receptor protein due to exposure to doxycycline. In words: Cellular growth inhibition, T-Rex 293 SC3 cells with doxycycline (androgen receptor induced), CellTiter-Glo. In kind it is cell-based. The following applies: 72 h, T-Rex 293 SC3 cells with 10 ng/mL doxycycline (increased androgen receptor expression). The procedure, abridged: (§1)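 Cells of clone SC3 are seeded in charcoal-dextran-stripped serum medium with or without 10 ng/mL doxycycline to induce wild-type androgen receptor. After 24 h, serial compound dilutions are added at 0.5% DMSO and incubated 72 h at 37 °C. CellTiter-Glo 2.0 measures viability, giving GI50 values.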
Background: ATP-based viability assays read luminescence as a measure of living cells.

Experiment [2] has as its system T-Rex 293 cell line SC3 cells lacking increased expression of androgen receptor protein. In words: Cellular growth inhibition, T-Rex 293 SC3 cells without doxycycline, CellTiter-Glo. In kind it is cell-based. The following applies: 72 h, T-Rex 293 SC3 cells not exposed to doxycycline, CellTiter-Glo 2.0. The gist of the method:
as §1

The test system of the next experiment is VCaP cells. In words: Cellular growth inhibition assay for VCaP cells, CellTiter-Glo. The class given is cell-based, human. Conditions: Homo sapiens, VCaP, 72 h, 72 hours treatment, CellTiter-Glo 2.0. The gist of the method: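 GI50 values come from four-parameter curve fits of luminescence data normalized to a zero baseline. Compound, in medium with 0.5% DMSO, was added one day after plating and left for 72 h before CellTiter-Glo 2.0 addition.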

The subject of another experiment is T47D cells. In words: Cellular growth inhibition assay for T47D cells, CellTiter-Glo. In kind it is cell-based, human. The following applies: Homo sapiens, T47D, 72 h, 72 hours treatment, CellTiter-Glo 2.0 cell viability. The gist of the method:
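Luminescence from CellTiter-Glo 2.0 after 72 h of compound exposure gives the viability signal. Cells grew in insulin-supplemented (0.2 units/mL) DMEM with 10% FBS and were treated one day after seeding at 0.5% DMSO. GI50 values come from four-parameter nonlinear regression.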

Regarding `CCNC(=O)C[C@@H]1N=C(c2ccc(N(C)CCC3CCN(c4ncc(C(=O)N[C@H]5C(C)(C)[C@H](Oc6ccc(C#N)c(Cl)c6)C5(C)C)cn4)CC3)cc2)c2c(sc(C)c2C)-n2c(C)nnc21` [Compound I-110], the GI50 (in experiment [1]; in experiment [2]; in the experiment with VCaP cells; with T47D cells) was under 500 nM in each case.
As to `CCNC(=O)C[C@@H]1N=C(c2ccc(N3CC(OC4CCN(c5ncc(C(=O)N[C@H]6C(C)(C)[C@H](Oc7ccc(C#N)c(Cl)c7)C6(C)C)cn5)CC4)C3)cc2)c2c(sc(C)c2C)-n2c(C)nnc21` [Compound I-117], the 50% growth inhibitory concentration (GI50) is under 500 nM in experiment [1], 500 to 1500 nM in experiment [2], under 500 nM in the experiment on VCaP cells and under 500 nM with T47D cells.
`CCNC(=O)C[C@@H]1N=C(c2ccc(N3CCC(OC4CN(c5ncc(C(=O)N[C@H]6C(C)(C)[C@H](Oc7ccc(C#N)c(Cl)c7)C6(C)C)cn5)C4)CC3)cc2)c2c(sc(C)c2C)-n2c(C)nnc21` [Compound I-118]: the 50% growth inhibitory concentration (GI50) in experiment [1] was under 500 nM; in experiment [2], 500 to 1500 nM; in the experiment with VCaP cells, under 500 nM; in the experiment on T47D cells, under 500 nM.
Consider `CCNC(=O)C[C@@H]1N=C(c2ccc(N3CC(N(C)C4CCN(c5ncc(C(=O)N[C@H]6C(C)(C)[C@H](Oc7ccc(C#N)c(Cl)c7)C6(C)C)cn5)CC4)C3)cc2)c2c(sc(C)c2C)-n2c(C)nnc21` [Compound I-122], for which the 50% growth inhibitory concentration (GI50) in experiment [1] is under 500 nM; in experiment [2], 500 to 1500 nM; in the experiment on VCaP cells it was under 500 nM; in the experiment with T47D cells, under 500 nM.
In the case of `CCNC(=O)C[C@@H]1N=C(c2ccc(N3CC(N(C(C)C)C4CN(c5ncc(C(=O)N[C@H]6C(C)(C)[C@H](Oc7ccc(C#N)c(Cl)c7)C6(C)C)cn5)C4)C3)cc2)c2c(sc(C)c2C)-n2c(C)nnc21` [Compound I-125], the GI50 in experiment [1] is under 500 nM; in experiment [2], 500 to 1500 nM; in the experiment with VCaP cells, under 500 nM; with T47D cells it was 500 to 1500 nM.
Regarding `CCNC(=O)C[C@@H]1N=C(c2ccc(N3CCC(OC4CCN(c5ncc(C(=O)N[C@H]6C(C)(C)[C@H](Oc7ccc(C#N)c(Cl)c7)C6(C)C)cn5)CC4)C3)cc2)c2c(sc(C)c2C)-n2c(C)nnc21` (stereo partly drawn) [Compound I-126], the GI50 was under 500 nM in experiment [1], 500 to 1500 nM in experiment [2], 500 to 1500 nM in the experiment on VCaP cells and under 500 nM with T47D cells.
Consider `CCNC(=O)C[C@@H]1N=C(c2ccc(N3CC(CC4CN(c5ncc(C(=O)N[C@H]6C(C)(C)[C@H](Oc7ccc(C#N)c(Cl)c7)C6(C)C)cn5)C4)C3)cc2)c2c(sc(C)c2C)-n2c(C)nnc21` [Compound I-127], for which the GI50 in experiment [1] is under 500 nM; in experiment [2], 500 to 1500 nM; with VCaP cells it was under 500 nM; with T47D cells it was under 500 nM.
Consider `CCNC(=O)C[C@@H]1N=C(c2ccc(N3CCC(CN4CC(N(C)c5ncc(C(=O)N[C@H]6C(C)(C)[C@H](Oc7ccc(C#N)c(Cl)c7)C6(C)C)cn5)C4)CC3)cc2)c2c(sc(C)c2C)-n2c(C)nnc21` [Compound I-128], for which the GI50 in experiment [1] was over 3000 nM; in experiment [2], over 3000 nM; in the experiment on VCaP cells, 1500 to 3000 nM; in the experiment with T47D cells, 1500 to 3000 nM.
As for `Cc1sc2c(c1C)C(c1ccc(CCC3CCN(c4ncc(C(=O)N[C@H]5C(C)(C)[C@H](Oc6ccc(C#N)c(Cl)c6)C5(C)C)cn4)CC3)cc1)=N[C@@H](Cc1ncco1)c1nnc(C)n1-2` [Compound I-132], the concentration for 50% growth inhibition (GI50) is under 500 nM in experiment [1], over 3000 nM in experiment [2], under 500 nM in the experiment with VCaP cells and under 500 nM in the experiment with T47D cells.
Turning to `Cc1sc2c(c1C)C(c1ccc(CCCC3CCN(c4ncc(C(=O)N[C@H]5C(C)(C)[C@H](Oc6ccc(C#N)c(Cl)c6)C5(C)C)cn4)CC3)cc1)=NC(Cc1ncco1)c1nnc(C)n1-2` (stereo partly drawn) [Compound I-133], the GI50 is under 500 nM in experiment [1], 500 to 1500 nM in experiment [2], under 500 nM in the experiment on VCaP cells and under 500 nM in the experiment with T47D cells.
For the compound `Cc1sc2c(c1C)C(c1ccc(CCCCC3CCN(c4ncc(C(=O)N[C@H]5C(C)(C)[C@H](Oc6ccc(C#N)c(Cl)c6)C5(C)C)cn4)CC3)cc1)=NC(Cc1ncco1)c1nnc(C)n1-2` (stereo partly drawn) [Compound I-135], the GI50 was under 500 nM in experiment [1], over 3000 nM in experiment [2], under 500 nM in the experiment on VCaP cells and under 500 nM in the experiment on T47D cells.
For the compound `Cc1sc2c(c1C)C(c1ccc(CN3CCC4(CCCN(c5ncc(C(=O)N[C@H]6C(C)(C)[C@H](Oc7ccc(C#N)c(Cl)c7)C6(C)C)cn5)C4)C3)cc1)=NC(Cc1ncco1)c1nnc(C)n1-2` (stereo partly drawn) [Compound I-137], the GI50 in experiment [1] is under 500 nM; in experiment [2], 500 to 1500 nM; in the experiment on VCaP cells, under 500 nM; in the experiment on T47D cells, under 500 nM.
`Cc1sc2c(c1C)C(c1ccc(CN3CC4(CCCN(c5ncc(C(=O)N[C@H]6C(C)(C)[C@H](Oc7ccc(C#N)c(Cl)c7)C6(C)C)cn5)C4)C3)cc1)=NC(Cc1ncco1)c1nnc(C)n1-2` (stereo partly drawn) [Compound I-138]: the GI50 in experiment [1] was under 500 nM; in experiment [2], 1500 to 3000 nM; in the experiment on VCaP cells, under 500 nM; in the experiment with T47D cells, 500 to 1500 nM.
`Cc1sc2c(c1C)C(c1ccc(CN3CC4(C3)CN(c3ncc(C(=O)N[C@H]5C(C)(C)[C@H](Oc6ccc(C#N)c(Cl)c6)C5(C)C)cn3)CCO4)cc1)=NC(Cc1ncco1)c1nnc(C)n1-2` (stereo partly drawn) [Compound I-139]: the GI50 (in experiment [1]; in experiment [2]; with VCaP cells; in the experiment with T47D cells) was under 500 nM throughout.
For `Cc1sc2c(c1C)C(c1ccc(CCOC3CCN(c4ncc(C(=O)N[C@H]5C(C)(C)[C@H](Oc6ccc(C#N)c(Cl)c6)C5(C)C)cn4)CC3)cc1)=NC(Cc1ncco1)c1nnc(C)n1-2` (stereo partly drawn) [Compound I-140], the GI50 (in experiment [1]; in experiment [2]; in the experiment with VCaP cells; with T47D cells) was under 500 nM each time.
With `Cc1sc2c(c1C)C(c1ccc(CN3CC4(CCN(c5ncc(C(=O)N[C@H]6C(C)(C)[C@H](Oc7ccc(C#N)c(Cl)c7)C6(C)C)cn5)CC4)C3)cc1)=N[C@@H](Cc1ncco1)c1nnc(C)n1-2` [Compound I-141], the 50% growth inhibitory concentration (GI50) in experiment [1] is under 500 nM; in experiment [2], 500 to 1500 nM; in the experiment on VCaP cells, under 500 nM; in the experiment on T47D cells it was over 3000 nM.
Consider `Cc1sc2c(c1C)C(c1ccc(CC3CC4(CCN(c5ncc(C(=O)N[C@H]6C(C)(C)[C@H](Oc7ccc(C#N)c(Cl)c7)C6(C)C)cn5)CC4)C3)cc1)=N[C@@H](Cc1ncco1)c1nnc(C)n1-2` [Compound I-142], for which the 50% growth inhibitory concentration (GI50) in experiment [1] is under 500 nM; in experiment [2], over 3000 nM; in the experiment on VCaP cells it was over 3000 nM; in the experiment with T47D cells, over 3000 nM.
Consider `Cc1sc2c(c1C)C(c1ccc(CN3CC[C@@]4(CCCN(c5ncc(C(=O)N[C@H]6C(C)(C)[C@H](Oc7ccc(C#N)c(Cl)c7)C6(C)C)cn5)C4)C3)cc1)=N[C@@H](Cc1ncco1)c1nnc(C)n1-2` [Compound I-144], for which the GI50 is under 500 nM in experiment [1], under 500 nM in experiment [2], under 500 nM with VCaP cells and 500 to 1500 nM in the experiment on T47D cells.
With `Cc1sc2c(c1C)C(c1ccc(CN3CC[C@]4(CCCN(c5ncc(C(=O)N[C@H]6C(C)(C)[C@H](Oc7ccc(C#N)c(Cl)c7)C6(C)C)cn5)C4)C3)cc1)=N[C@@H](Cc1ncco1)c1nnc(C)n1-2` [Compound I-145], the concentration for 50% growth inhibition (GI50) (in experiment [1]; in experiment [2]; in the experiment with VCaP cells; in the experiment on T47D cells) was under 500 nM in each case.
Regarding `Cc1sc2c(c1C)C(c1ccc(CN3CCC4(CCCN(c5ncc(C(=O)N[C@H]6C(C)(C)[C@H](Oc7ccc(C#N)c(Cl)c7)C6(C)C)cn5)C4)C3)cc1)=N[C@H](Cc1ncco1)c1nnc(C)n1-2` (stereo partly drawn) [Compound I-146], the concentration for 50% growth inhibition (GI50) in experiment [1] is under 500 nM; in experiment [2], 500 to 1500 nM; in the experiment on VCaP cells, under 500 nM; in the experiment on T47D cells, under 500 nM.
With `Cc1sc2c(c1C)C(c1ccc(CCN3CCC4(CCCN(c5ncc(C(=O)N[C@H]6C(C)(C)[C@H](Oc7ccc(C#N)c(Cl)c7)C6(C)C)cn5)C4)C3)cc1)=N[C@@H](Cc1ncco1)c1nnc(C)n1-2` (stereo partly drawn) [Compound I-147], the concentration for 50% growth inhibition (GI50) is under 500 nM in experiment [1], 500 to 1500 nM in experiment [2], under 500 nM in the experiment with VCaP cells and under 500 nM in the experiment on T47D cells.
On to `Cc1sc2c(c1C)C(c1ccc(CN3CC4(CCCN(c5ncc(C(=O)N[C@H]6C(C)(C)[C@H](Oc7ccc(C#N)c(Cl)c7)C6(C)C)cn5)C4)C3)cc1)=N[C@@H](Cc1ncco1)c1nnc(C)n1-2` [Compound I-148], for which the GI50 (in experiment [1]; in experiment [2]; in the experiment with VCaP cells; in the experiment with T47D cells) was under 500 nM throughout.
Turning to `Cc1sc2c(c1C)C(c1ccc(CN3CC4(CCCN(c5ncc(C(=O)N[C@H]6C(C)(C)[C@H](Oc7ccc(C#N)c(Cl)c7)C6(C)C)cn5)C4)C3)cc1)=N[C@H](Cc1ncco1)c1nnc(C)n1-2` [Compound I-149], the 50% growth inhibitory concentration (GI50) in experiment [1] is under 500 nM; in experiment [2], over 3000 nM; in the experiment with VCaP cells it was 500 to 1500 nM; in the experiment on T47D cells, over 3000 nM.
`Cc1sc2c(c1C)C(c1ccc(C3CC3C3CC4(CCN(c5ncc(C(=O)N[C@H]6C(C)(C)[C@H](Oc7ccc(C#N)c(Cl)c7)C6(C)C)cn5)CC4)C3)cc1)=N[C@H](Cc1ncco1)c1nnc(C)n1-2` (stereo partly drawn) [Compound I-150]: the GI50 in experiment [1] was under 500 nM; in experiment [2] it was over 3000 nM; with VCaP cells, under 500 nM; with T47D cells, over 3000 nM.

In general, GI50 refers to the concentration giving 50% growth inhibition. Low values mean greater sensitivity of the cells, high ones lower sensitivity of the cells.
